Laboratory results: paper PMC9145622, “Synthesis, Biological Evaluation, and Docking Studies of Antagonistic Hydroxylated Arecaidine Esters Targeting mAChRs” (Molecules, 2022)

What was measured:
[1] = High-throughput HPLC-logD; format: physicochemical; conditions: octadecyl-poly(vinyl alcohol) column, methanol / 0.01 M sodium phosphate buffer pH 7.4
Source text: For this, logD values were estimated in an HPLC-based high-throughput assay employing an octadecyl-poly(vinyl alcohol) stationary phase. The absence of silanol groups renders this type of column especially suited in case of analytes with hydrogen bond donor capabilities as it avoids overestimating their lipophilicity.
Briefly, a mixture of toluene (≥98%, Sigma-Aldrich, St. Louis, MO, USA) and triphenylene (≥99.9%, Carl Roth, Karlsruhe, Germany) was used as internal standard. Samples were dissolved in the internal standard mixture. Using gradient elution, the injection volume was set to 7 µL, the flow rate was 1.5 mL/min, and the mobile phase consisted of a mixture of methanol and 0.01 M sodium phosphate buffer pH 7.4. The HPLC-logD values were derived from the measured retention times following the previously published equation [21, 40].

[2] = biological target: T1, hM1 (Homo sapiens, UniProt P11229); test: Competitive [3H]NMS radioligand binding, CHO-K1 membranes expressing hM1; conditions: for Ki: [3H]NMS, CHO-hM1 cell membrane preparations, read-out: Affinity: Ki ± SD hM1; for x-Fold Selectivity for hM1 vs. hM2: ratio of the Ki values hM2/hM1; for x-Fold Selectivity for hM1 vs. hM3: ratio of the Ki values hM3/hM1; for x-Fold Selectivity for hM1 vs. hM4: ratio of the Ki values hM4/hM1; for x-Fold Selectivity for hM1 vs. hM5: ratio of the Ki values hM5/hM1
T1 sequence (P11229 1-460): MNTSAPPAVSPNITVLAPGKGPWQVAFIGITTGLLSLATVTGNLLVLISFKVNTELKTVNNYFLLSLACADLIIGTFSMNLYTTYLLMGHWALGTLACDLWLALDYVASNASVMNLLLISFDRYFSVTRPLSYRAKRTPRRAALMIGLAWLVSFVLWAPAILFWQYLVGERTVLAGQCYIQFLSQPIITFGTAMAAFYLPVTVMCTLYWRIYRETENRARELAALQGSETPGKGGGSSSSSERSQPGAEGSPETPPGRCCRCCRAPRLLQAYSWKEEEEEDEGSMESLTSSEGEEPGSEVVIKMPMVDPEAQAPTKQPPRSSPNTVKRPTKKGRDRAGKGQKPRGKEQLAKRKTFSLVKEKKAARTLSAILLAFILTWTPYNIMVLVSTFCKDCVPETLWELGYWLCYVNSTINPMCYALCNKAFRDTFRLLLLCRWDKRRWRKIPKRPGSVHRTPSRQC
Source text: (§1) The arecaidine esters’ affinities towards the human mAChR subtypes hM1–hM5 were studied in a competitive radioligand binding assay using CHO-K1 cell membrane homogenates expressing a single mAChR subtype and tritiated N-methyl scopolamine methyl chloride ([^3H]NMS). To speed up our affinity testing regime, we subjected all test substances to preliminary single-concentration displacement assays, as described previously. Compounds with percent displacements below 75% at any of the subtypes were dropped from further investigations (Table S1). For compounds meeting the percent displacement threshold (8c, 10b, 10c, 17b, 18b, and 25), inhibition constants (Ki) were assessed in dose-dependent displacement experiments (Table 2).
(§2) Cell membranes bearing hM1-hM5 receptors were prepared as described previously. Briefly, stably transfected CHO-K1 cells were grown to at least 80% confluency in T175 flasks, washed with ice-cold DPBS, and scraped into a mixture of ice-cold 2 mL 10 mM Tris-HCl, 1 mM EDTA-buffer, pH 7.4 and 200 µL protease inhibitor. A cell homogenate was prepared by passing the cell suspension through a G29 needle. The cell homogenates corresponding to two T175 flasks were combined and subsequently centrifuged (10 min, 1000× g, 4 °C). Ultracentrifugation of the supernatant (1 h, 100,000× g, 4 °C) yielded a membrane pellet, which was suspended in 250 µL 50 mM Tris-HCl buffer, pH 7.4 and stored at −80 °C.
(§3) Then, 5 µL of test compound in DMSO, 50 µL of [^3H]NMS in assay buffer, and 445 µL of membrane suspension in assay buffer were incubated for 90 min at 23 °C in PP tubes. Maximum binding was measured by using 5 µL DMSO, and nonspecific binding was measured by using 5 µL of 1 µM scopolamine in DMSO. The effective concentration of [^3H]NMS was 0.2 nM, 0.3 nM, 0.8 nM, 0.2 nM, and 1 nM for M1–M5 and 4–30 µg membrane were used per tube. The membrane-bound radioactivity was recovered by filtration through Whatman™ GF/B glass fiber filters presoaked in aqueous 0.1% PEI using an M-36 tygon tubed cell harvester (Brandel®, Gaithersburg, MD, USA). Membranes were washed three times with ice-cold washing buffer (50 mM Tris, pH 7.4) before being dried, transferred to 2 mL scintillation cocktail (UltimaGold™, high flashpoint LSC cocktail, PerkinElmer, Waltham, MA, USA) and counted in a β-counter (Hidex TDCR liquid scintillation counter in CPM mode). IC50 values were calculated by a variable slope logistic regression using at least five distinct concentrations of test compounds, pipetted in triplicates.

[3] = biological target: hM3 (Homo sapiens, UniProt P20309); test: Competitive [3H]NMS radioligand binding, CHO-K1 membranes expressing hM3; conditions: [3H]NMS, CHO-hM3 cell membrane preparations; read-out: Affinity: Ki ± SD hM3
Sequence of hM3 (P20309 whole entry): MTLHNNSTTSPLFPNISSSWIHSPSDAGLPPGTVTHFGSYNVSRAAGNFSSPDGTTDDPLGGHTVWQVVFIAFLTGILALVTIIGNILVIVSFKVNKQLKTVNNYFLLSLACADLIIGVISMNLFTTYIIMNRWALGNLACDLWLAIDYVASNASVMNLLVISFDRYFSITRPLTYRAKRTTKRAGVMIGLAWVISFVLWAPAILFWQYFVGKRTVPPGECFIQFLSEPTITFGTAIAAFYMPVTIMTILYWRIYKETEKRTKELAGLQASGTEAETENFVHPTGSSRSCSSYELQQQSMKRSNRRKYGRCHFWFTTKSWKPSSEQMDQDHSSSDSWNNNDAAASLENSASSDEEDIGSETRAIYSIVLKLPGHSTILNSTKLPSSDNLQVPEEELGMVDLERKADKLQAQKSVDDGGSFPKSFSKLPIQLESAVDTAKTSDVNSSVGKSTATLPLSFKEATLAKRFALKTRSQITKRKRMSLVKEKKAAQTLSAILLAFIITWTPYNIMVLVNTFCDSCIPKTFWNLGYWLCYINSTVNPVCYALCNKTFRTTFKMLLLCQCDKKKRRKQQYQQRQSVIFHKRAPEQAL
Source text: as §1, §2, §3

[4] = biological target: T2, hM5 (Homo sapiens, UniProt P08912); test: Competitive [3H]NMS radioligand binding, CHO-K1 membranes expressing hM5; conditions: for Ki: [3H]NMS, CHO-hM5 cell membrane preparations, read-out: Affinity: Ki ± SD hM5
T2 sequence (P08912 1-532): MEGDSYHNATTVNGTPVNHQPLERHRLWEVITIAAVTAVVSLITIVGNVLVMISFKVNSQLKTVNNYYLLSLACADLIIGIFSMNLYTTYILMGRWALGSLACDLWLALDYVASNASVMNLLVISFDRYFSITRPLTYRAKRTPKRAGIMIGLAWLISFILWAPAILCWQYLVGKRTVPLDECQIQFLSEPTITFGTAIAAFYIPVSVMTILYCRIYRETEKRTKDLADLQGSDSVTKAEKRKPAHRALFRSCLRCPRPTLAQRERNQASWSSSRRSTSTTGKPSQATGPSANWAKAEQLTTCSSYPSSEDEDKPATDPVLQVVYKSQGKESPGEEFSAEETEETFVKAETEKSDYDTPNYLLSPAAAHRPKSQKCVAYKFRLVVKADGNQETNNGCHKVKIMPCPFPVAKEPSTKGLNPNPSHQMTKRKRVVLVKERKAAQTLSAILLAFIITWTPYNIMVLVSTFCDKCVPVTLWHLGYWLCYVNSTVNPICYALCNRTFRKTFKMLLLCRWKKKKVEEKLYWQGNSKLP
Source text: as §1, §2, §3

Structure (SMILES) | chromatographic logD [1] | Ki [2] [nM] | x-Fold Selectivity for hM1 vs. hM2 [2] [x-fold] | x-Fold Selectivity for hM1 vs. hM3 [2] [x-fold] | x-Fold Selectivity for hM1 vs. hM4 [2] [x-fold] | x-Fold Selectivity for hM1 vs. hM5 [2] [x-fold] | Ki [3] [nM] | Ki [4] [nM] | melting point [°C] | preference for hM5R over hM1R ([4]; in vitro binding affinities)
CN1CCC=C(C(=O)OC(c2ccccc2)c2cccc(O)c2)C1 (stereo not drawn) [Compound 17b, (3-hydroxyphenyl)(phenyl)methyl 1-methyl-1,2,5,6-tetrahydropyridine-3-carboxylate] | 2.69 ± 0.01 | 5.5 ± 0.5 |  | 3.7 | 3.3 | 2.0 | 20.4 ± 1.2 | 11 ± 1.5 | 143 to 144 | 
CN1CCC=C(C(=O)OC(c2ccccc2)c2ccc(CO)cc2)C1 (stereo not drawn) [Compound 10c, (4-(hydroxymethyl)phenyl)(phenyl)methyl 1-methyl-1,2,5,6-tetrahydropyridine-3-carboxylate] | 2.8 ± 0.2 | 74 ± 3.2 | 13.2 | 2.0 | 1.3 | 1.0 | 150 ± 26 | 72 ± 13 |  | 
CN1CCC=C(C(=O)OCc2ccc(CO)cc2)C1 [Compound 8c, 4-(hydroxymethyl)benzyl 1-methyl-1,2,5,6-tetrahydropyridine-3-carboxylate] | 1.03 ± 0.04 | 525 ± 36 | >1.9 | 1.3 | 1.3 | 0.8 | 663 ± 56 | 417 ± 73 |  | 

The remaining lines, values ahead:

chromatographic logD [1] | Ki [2] [nM] | x-Fold Selectivity for hM1 vs. hM2 [2] [x-fold] | x-Fold Selectivity for hM1 vs. hM3 [2] [x-fold] | x-Fold Selectivity for hM1 vs. hM4 [2] [x-fold] | x-Fold Selectivity for hM1 vs. hM5 [2] [x-fold] | Ki [3] [nM] | Ki [4] [nM] | melting point [°C] | preference for hM5R over hM1R ([4]; in vitro binding affinities) | Structure (SMILES)
2.69 ± 0.01 | 231 ± 60 | >4.3 | 1.2 | 0.9 | 1.2 | 283 ± 20 | 284 ± 62 | 150 to 153 |  | CN1CCC=C(C(=O)OCC(O)(c2ccccc2)c2ccccc2)C1 [Compound 25, 2-hydroxy-2,2-diphenylethyl 1-methyl-1,2,5,6-tetrahydropyridine-3-carboxylate]
1.57 ± 0.04 | 259 ± 75 |  | 0.7 | 2.4 | 0.35 | 188 ± 18 | 90 ± 27 | 115 to 119 | almost threefold | CN1CCC=C(C(=O)OCc2cccc(O)c2)C1 [Compound 18b, 3-hydroxybenzyl 1-methyl-1,2,5,6-tetrahydropyridine-3-carboxylate]
